Values of other authors as cited in patent US20220160728A1, “GENE THERAPY METHODS” (Homology Medicines, Inc., priority 2020, published 2022).

conditions: corticosteroid equivalency conversion values (prednisolone equivalents)

Q: With `CC(=O)OCC(=O)[C@@]1(O)CC[C@H]2[C@@H]3CCC4=CC(=O)CC[C@]4(C)[C@H]3C(=O)C[C@@]21C` [Cortisone acetate] as the compound, how does the Equivalent dose read?
A: 25 mg

Q: With `C[C@]12CCC(=O)C=C1CC[C@@H]1[C@@H]2[C@@H](O)C[C@@]2(C)[C@H]1CC[C@]2(O)C(=O)CO` [Hydrocortisone (cortisol), Hydrocortisone] as the compound, how does the Equivalent dose read?
A: 20 mg

Q: For `C[C@]12C=CC(=O)C=C1CC[C@@H]1[C@@H]2[C@@H](O)C[C@@]2(C)[C@H]1CC[C@]2(O)C(=O)CO` [Prednisolone], which Equivalent dose is on record?
A: 5 mg

Q: For `C[C@]12C=CC(=O)C=C1CC[C@H]1[C@@H]3C[C@@H](O)[C@](O)(C(=O)CO)[C@@]3(C)C[C@H](O)[C@@]12F` [Triamcinolone], which Equivalent dose is on record?
A: 4 mg
